Values of other authors as cited in patent US20060127506A1, “Compositions of S-adenosyl-L-methionine” (priority 2004, published 2006).

How the values were obtained:
[1] = test system: S-adenosyl-L-methionine-dependent methyltransferases
[2] = test system: nucleolar 2-O-methyltransferase; settings: (S,S) vs (R,S) diastereomer
[3] = optical purity of 97-100% (Berna et al, US 20020010147)
[4] = oral; alcoholic liver cirrhosis; compared with placebo treated group
beta-adrenergic = settings: L-form vs D-enantiomer

C[S@@+](CC[C@@H](N)C(=O)O)C[C@H]1O[C@@H](n2cnc3c(N)ncnc32)[C@H](O)[C@@H]1O [(R,S)-S-adenosyl-L-methionine]
extent of binding relative to (S,S)-S-adenosyl-L-methionine (Other methyltransferases): to the same extent | inhibition of enzyme-catalyzed transmethylation reactions [1]: potent inhibitor

C[S@@+](CC[C@H](N)C(=O)O)C[C@H]1O[C@@H](n2cnc3c(N)ncnc32)[C@H](O)[C@@H]1O [(S,S)-S-adenosyl-L-methionine]
tightness of enzyme binding relative to (R,S)-S-adenosyl-L-methionine [2]: 10 fold | time for which optical purity is sustained before epimerization begins again [3]: ≤ 4 months

C[S+](CC[C@H](N)C(=O)[O-])C[C@H]1O[C@@H](n2cnc3c(N)ncnc32)[C@H](O)[C@@H]1O (stereo partly drawn) [S-adenosyl-L-methionine]
overall mortality and/or progression to liver transplant [4]: 12%

CC(C)NCC(O)COc1cccc2ccccc12 (stereo not drawn) [propranolol]
potency of L-form relative to D-enantiomer (beta-adrenergic): 100 times
